Holding throughout (format): cell-based
One experiment deals with LNCaP. Kind of experiment: IncuCyte % confluence cell growth inhibition, LNCaP. Conditions: Homo sapiens, read-out: IC50 values (μM), LNCaP. The procedure: (§1) Images were then analyzed to discern the % confluence of cells in each well. IC50 values were calculated from dose response curves of the % cell growth inhibition relative to DMSO control at the same time point per each cell line.

In the next experiment the test system is LNCAP AR. Description: IncuCyte % confluence cell growth inhibition, LNCAP AR. The settings on record: read-out: IC50 values (μM), LNCAP AR. Here is the method: as §1
The test system of a further experiment is LAPC4. Description: IncuCyte % confluence cell growth inhibition, LAPC4. The settings on record: Homo sapiens. Here is the method:
as §1

The subject of a further experiment is 22Rv1. Description: IncuCyte % confluence cell growth inhibition, 22Rv1. Conditions: Homo sapiens. Here is the method: as §1
For the next experiment, the system named is LNCaP ARin vivo. Description: IncuCyte % confluence cell growth inhibition, LNCaP ARin vivo. The settings on record: Homo sapiens, read-out: IC50 values (μM), LNCaP ARin vivo. The procedure:
as §1

The subject of a further experiment is PC3. Description: IncuCyte % confluence cell growth inhibition, PC3. The settings on record: Homo sapiens. The procedure: as §1
The next experiment concerns DU145. Kind of experiment: IncuCyte % confluence cell growth inhibition, DU145. Conditions: Homo sapiens. Here is the method: as §1
For the next experiment, the target named is T1, AR (Homo sapiens, UniProt P10275).
T1 construct: host or cells: HEK 293T
T1 sequence (P10275 1-920): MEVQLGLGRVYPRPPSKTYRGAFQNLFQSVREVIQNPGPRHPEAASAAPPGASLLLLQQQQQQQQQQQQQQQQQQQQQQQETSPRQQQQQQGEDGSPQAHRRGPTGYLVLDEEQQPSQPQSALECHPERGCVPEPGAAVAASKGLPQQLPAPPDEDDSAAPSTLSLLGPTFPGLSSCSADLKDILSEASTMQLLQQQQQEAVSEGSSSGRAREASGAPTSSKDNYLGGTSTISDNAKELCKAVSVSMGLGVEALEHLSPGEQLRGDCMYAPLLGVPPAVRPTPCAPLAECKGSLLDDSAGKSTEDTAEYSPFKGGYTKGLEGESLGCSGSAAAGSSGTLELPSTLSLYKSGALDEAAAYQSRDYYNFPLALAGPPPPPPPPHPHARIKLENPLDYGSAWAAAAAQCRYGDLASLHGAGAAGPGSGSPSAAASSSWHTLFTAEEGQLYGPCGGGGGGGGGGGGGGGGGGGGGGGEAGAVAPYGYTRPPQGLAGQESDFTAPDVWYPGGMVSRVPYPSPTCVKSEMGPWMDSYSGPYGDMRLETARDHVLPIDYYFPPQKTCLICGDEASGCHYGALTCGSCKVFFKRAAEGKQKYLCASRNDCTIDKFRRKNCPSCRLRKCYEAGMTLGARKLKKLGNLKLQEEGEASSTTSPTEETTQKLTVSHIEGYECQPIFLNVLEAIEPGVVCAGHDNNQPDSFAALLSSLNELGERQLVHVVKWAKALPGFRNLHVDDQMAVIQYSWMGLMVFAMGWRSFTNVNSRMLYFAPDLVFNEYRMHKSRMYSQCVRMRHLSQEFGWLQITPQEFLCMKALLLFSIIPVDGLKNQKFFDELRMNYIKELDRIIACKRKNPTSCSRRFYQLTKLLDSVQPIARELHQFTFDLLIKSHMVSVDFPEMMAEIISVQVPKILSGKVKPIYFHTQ
Kind of experiment: AR transcriptional output, ARE-luciferase assay in HEK 293T cells. The settings on record: for antagonist or inverse agonist activity on AR transcriptional activity (in words): 10 μM, HEK 293T, FIG. 6A; for activity at 10 µM: HEK-293T, read-out: AR antagonist activity (% RLU). Here is the method:
100% is set to the activity with 200 μM testosterone, and 0% is set to the basal level (no ligand).
Cells were maintained in steroid free media, and stimulated with 200 μM testosterone, followed immediately by administration of exemplary compounds (Table 1, below). RLU is relative luciferase units, relative to DMSO control with 200 μM testosterone alone. Data represent an average of 3 independent experiments performed in triplicate wells per compounds at 10 μM.
Cells were maintained in steroid-free media, and stimulated with 200 μM testosterone, followed immediately by administration of a test compound. […] Compounds were dosed at 10 μM in FIGS. 6A and 6B.
Cells were maintained in steroid-free media, and stimulated with 200 μM testosterone, followed immediately by administration of a test compound.

In the next experiment the test system is LNCaP ARF876L. Description: IncuCyte % confluence cell growth inhibition, LNCaP ARF876L. Conditions: Homo sapiens, AR-positive, AR mutation F876L, % cell growth inhibition relative to DMSO. The procedure: as §1
The mark [1] stands for this setting: AR-positive, AR mutation T877A, % cell growth inhibition relative to DMSO.
Where [2] appears, read: AR-positive, AR w.t., % cell growth inhibition relative to DMSO.
[3] abbreviates: LAPC4, AR-positive, AR w.t., % cell growth inhibition relative to DMSO, read-out: IC50 values (μM), LAPC4.
[4] abbreviates: 22Rv1, AR-positive, AR mutation H874Y, % cell growth inhibition relative to DMSO, read-out: IC50 values (μM), 22Rv1.
Setting [5] is: PC-3, AR-negative, % cell growth inhibition relative to DMSO, read-out: IC50 values (μM), PC3.
Where [6] appears, read: DU-145, AR-negative, % cell growth inhibition relative to DMSO, read-out: IC50 values (μM), DU145.
Where [7] appears, read: LAPC4, read-out: IC50 values (μM), LAPC4.
Setting [8] is: 22Rv1, read-out: IC50 values (μM), 22Rv1.
[9] abbreviates: PC-3, read-out: IC50 values (μM), PC3.
The mark [10] stands for this setting: DU-145, read-out: IC50 values (μM), DU145.

The source of these data is patent US20230135524A1, “ARYL HYDANTOIN HETEROCYCLES AND METHODS OF USE” (The United States of America,as represented by the …, priority 2020, published 2023).

Read-outs that look alike come from different tables or passages of the source.

The IC50 is the concentration needed to halve the response being measured.

Regarding `CNC(=O)c1ccc(N2C(=S)N(c3cnc(C#N)c(C(F)(F)F)c3)C(=O)C23CCC3)cc1F` [ARN509, reference compound], the IC50 turned out to be 34.5 µM in the experiment on LNCaP (setting [1]); 98.9 µM with LNCAP AR (setting [2]); 86 µM in the experiment with LAPC4 (setting [3]); 32.5 µM in the experiment with 22Rv1 (setting [4]); 270 µM in the experiment on LNCaP ARin vivo (setting [2]); 300 µM in the experiment with PC3 (setting [5]). Also, the concentration for half-maximal inhibition (IC50) with DU145 (setting [6]) stood at 61.8 µM.

Take `CC(=O)N1CCN(CCOc2ccc(C3CCN(C4=Nn5c(nnc5C(F)(F)F)CC4)CC3)cc2)CC1` [AZD3514, reference compound]: the IC50 in the experiment with LNCaP (setting [1]) was 76.9 µM; with LNCAP AR (setting [2]) it was 25.8 µM; with LAPC4 (setting [3]), 30.5 µM; in the experiment with 22Rv1 (setting [4]), 26.8 µM; in the experiment on PC3 (setting [5]), 122 µM; in the experiment with DU145 (setting [6]), 61.2 µM.

`CC(O)(CS(=O)(=O)c1ccc(F)cc1)C(=O)Nc1ccc(C#N)c(C(F)(F)F)c1` (stereo not drawn) [Bicalutamide, bicalutamide, reference compound]: the 50% inhibitory concentration (IC50) was determined as 80.5 µM with LNCAP AR (setting [2]), 67 µM with LAPC4 (setting [3]), 53.4 µM with 22Rv1 (setting [4]) and 239 µM with PC3 (setting [5]).

In the case of `C#Cc1ccc(CN2C(=O)N(c3ccc(C#N)c(C(F)(F)F)c3)C(=O)C2(C)C)cc1` [Compound 6, 4-[3-[(4-ethynylphenyl)methyl]-4,4-dimethyl-2,5-dioxo-1-imidazolidinyl]-2-(trifluoromethyl)-benzonitrile], at AR, the “antagonist or inverse agonist activity on AR transcriptional activity (in words)” value (“antagonist or inverse agonist activity” for short) was “relatively weak antagonists” and the activity at 10 µM was 138%.

`C#Cc1ccc(CN2C(=S)N(c3ccc(C#N)c(C(F)(F)F)c3)C(=O)C2(C)C)cc1` [Compound 10, 4-(3-(4-ethynylbenzyl)-4,4-dimethyl-5-oxo-2-thioxoimidazolidin-1-yl)-2-(trifluoromethyl)benzonitrile]: on AR, the “antagonist or inverse agonist activity” value is recorded as “relatively weak antagonists” and the activity at 10 µM is 95%.

Regarding `C#Cc1ccc(N2C(=S)N(c3ccc(C#N)c(C(F)(F)F)c3)C(=O)C2(C)C)cc1` [Compound 13, 4-(3-(4-ethynylphenyl)-4,4-dimethyl-5-oxo-2-thioxoimidazolidin-1-yl)-2-(trifluoromethyl)benzonitrile], at AR, the “antagonist or inverse agonist activity” value is “relatively weak antagonists” and the activity at 10 µM came to 59%.

Consider `Cn1cc(-c2ccc(CN3C(=O)N(c4ccc(C#N)c(C(F)(F)F)c4)C(=O)C3(C)C)cc2)nn1` [Compound 14b, 4-(4,4-dimethyl-3-(4-(1-methyl-1H-1,2,3-triazol-4-yl)benzyl)-2,5-dioxoimidazolidin-1-yl)-2-(trifluoromethyl)benzonitrile], for which the activity at 10 µM at AR was -3%.

Consider `Cn1cc(-c2ccc(CN3C(=S)N(c4ccc(C#N)c(C(F)(F)F)c4)C(=O)C3(C)C)cc2)nn1` [Compound 15b, 4-(4,4-dimethyl-3-(4-(1-methyl-1H-1,2,3-triazol-4-yl)benzyl)-5-oxo-2-thioxoimidazolidin-1-yl)-2-(trifluoromethyl)benzonitrile], for which the activity at 10 µM at AR is -41%.

As to `CCn1cc(-c2ccc(CN3C(=S)N(c4ccc(C#N)c(C(F)(F)F)c4)C(=O)C3(C)C)cc2)nn1` [Compound 15c, 4-(3-(4-(1-ethyl-1H-1,2,3-triazol-4-yl)benzyl)-4,4-dimethyl-5-oxo-2-thioxoimidazolidin-1-yl)-2-(trifluoromethyl)benzonitrile], on AR, the activity at 10 µM was determined as 3%.

As to `CCCn1cc(-c2ccc(CN3C(=S)N(c4ccc(C#N)c(C(F)(F)F)c4)C(=O)C3(C)C)cc2)nn1` [Compound 15d, 4-(4,4-dimethyl-5-oxo-3-(4-(1-propyl-1H-1,2,3-triazol-4-yl)benzyl)-2-thioxoimidazolidin-1-yl)-2-(trifluoromethyl)benzonitrile], the activity at 10 µM at AR is 4%.

On to `CCCCn1cc(-c2ccc(CN3C(=S)N(c4ccc(C#N)c(C(F)(F)F)c4)C(=O)C3(C)C)cc2)nn1` [Compound 15e, 4-(3-(4-(1-butyl-1H-1,2,3-triazol-4-yl)benzyl)-4,4-dimethyl-5-oxo-2-thioxoimidazolidin-1-yl)-2-(trifluoromethyl)benzonitrile], for which, at AR, the activity at 10 µM is -3%.

In the case of `CC1(C)C(=O)N(c2ccc(C#N)c(C(F)(F)F)c2)C(=S)N1Cc1c[nH]nn1` [Compound 18a], the activity at 10 µM at AR turned out to be 412%.

Consider `CC1(C)C(=O)N(c2ccc(C#N)c(C(F)(F)F)c2)C(=O)N1Cc1ccc(-c2c[nH]nn2)cc1F` [Compound 19a, 4-(3-(2-Fluoro-4-(1H-1,2,3-triazol-4-yl)benzyl)-4,4-dimethyl-2,5-dioxoimidazolidin-1-yl)-2-(trifluoromethyl)benzonitrile], for which the IC50 amounted to 39 µM in the experiment with LNCaP; 29.4 µM in the experiment on LNCAP AR; 30.7 µM in the experiment on LAPC4 (setting [7]); 36.7 µM in the experiment on 22Rv1 (setting [8]); 35.8 µM in the experiment with LNCaP ARin vivo; 41.4 µM in the experiment on LNCaP ARF876L. Moreover, the figures for the 50% inhibitory concentration (IC50) in the experiment with PC3 (setting [9]) and in the experiment on DU145 (setting [10]) were 63.4 µM and 46.1 µM, respectively.

Take `CC1(C)C(=O)N(c2ccc(C#N)c(C(F)(F)F)c2)C(=O)N1Cc1ccc(-c2c[nH]nn2)c(F)c1` [Compound 19b, 4-(3-(3-Fluoro-4-(1H-1,2,3-triazol-4-yl)benzyl)-4,4-dimethyl-2,5-dioxoimidazolidin-1-yl)-2-(trifluoromethyl)benzonitrile]: the IC50 in the experiment with LNCaP came to 43.1 µM; in the experiment on LNCAP AR it was 35.1 µM; in the experiment with LAPC4 (setting [7]), 33.1 µM; in the experiment on 22Rv1 (setting [8]), 40.6 µM; in the experiment on LNCaP ARin vivo it was 60.1 µM; in the experiment on LNCaP ARF876L it was 49.4 µM. Further, the IC50 with PC3 (setting [9]) amounted to 60.9 µM; with DU145 (setting [10]), 65 µM.

Turning to `CC1(C)C(=O)N(c2ccc(C#N)c(C(F)(F)F)c2)C(=O)N1Cc1ccc(-n2ccnn2)cc1` [Compound 20a, 4-(3-(4-(1H-1,2,3-triazol-1-yl)benzyl)-4,4-dimethyl-2,5-dioxoimidazolidin-1-yl)-2-(trifluoromethyl)benzonitrile], the activity at 10 µM at AR came to 57%.

Regarding `CC1(C)C(=O)N(c2ccc(C#N)c(C(F)(F)F)c2)C(=O)N1Cc1ccc(-n2cc(CO)nn2)cc1` [Compound 20b, 4-(3-(4-(4-(hydroxymethyl)-1H-1,2,3-triazol-1-yl)benzyl)-4,4-dimethyl-2,5-dioxoimidazolidin-1-yl) 2-(trifluoromethyl)benzonitrile], the activity at 10 µM at AR amounted to 73%.

Consider `CC1(C)C(=O)N(c2ccc(C#N)c(C(F)(F)F)c2)C(=O)N1Cc1ccc(-n2cc(CCO)nn2)cc1` [Compound 20c, 4-(3-(4-(4-(2-hydroxyethyl)-1H-1,2,3-triazol-1-yl)benzyl)-4,4-dimethyl-2,5-dioxoimidazolidin-1-yl)-2-(trifluoromethyl)benzonitrile], for which the activity at 10 µM on AR was -1%.
